Measured values reported in paper PMC11435058, “Synthesis of New Thiazole-Privileged Chalcones as Tubulin Polymerization Inhibitors with Potential Anticancer Activities” (Pharmaceuticals, 2024).
pIC50: −log10 of the molar value. Where two headings read alike, the source gives them in different places.

What was measured:
SNB-19 = assay: cells; details: Homo sapiens
NCI-H23 = assay: NCI-60 anticancer screen (SRB; single dose and five doses); details: Homo sapiens
NCI/ADR-RES = assay: as above; details: Homo sapiens
SK-MEL-5 = assay: as above; details: Homo sapiens
MDA-MB-231/ATCC = assay: as above; details: Homo sapiens
NCI-H322M = assay: as above; details: Homo sapiens
MOLT-4 = assay: as above; details: Homo sapiens
K-562 = assay: as above; details: Homo sapiens
NCI-H226 = assay: as above; details: Homo sapiens
SR = assay: as above; details: Homo sapiens
EKVX = assay: as above; details: Homo sapiens
DU-145 = assay: as above; details: Homo sapiens
PC-3 = assay: as above; details: Homo sapiens
BT-549 = assay: as above; details: Homo sapiens
RPMI-8226 = assay: as above; details: Homo sapiens
A498 = assay: as above; details: Homo sapiens
ACHN = assay: as above; details: Homo sapiens
SF-539 = assay: as above; details: Homo sapiens
[1] = system: 60 human tumor cell lines panel; assay: NCI-60 anticancer screen, whole panel (means and ranges over the cell lines); type: cell-based; details: for activity at 10 µM: Homo sapiens, 48 h, dose of 10 μM
SF-268 = assay: NCI-60 anticancer screen (SRB; single dose and five doses); details: Homo sapiens
NCI-H522 = assay: as above; details: Homo sapiens
SN12C = assay: as above; details: Homo sapiens
RXF 393 = assay: as above; details: Homo sapiens
MALME-3M = assay: as above; details: Homo sapiens
CCRF-CEM = assay: NCI-60 anticancer screen (SRB; single dose 10 μM and five doses); details: Homo sapiens
M14 = assay: NCI-60 anticancer screen (SRB; single dose and five doses); details: Homo sapiens
COLO 205 = assay: as above; details: Homo sapiens
HS 578T = assay: as above; details: Homo sapiens
MCF7 = assay: as above; details: Homo sapiens
[2] = 48 h, read-out: Growth Percentage
[3] = five doses, mean graph midpoint over all cell lines

With `Cc1[nH]c(=S)sc1C(=O)/C=C/c1ccc(Cl)cc1` [2f, (E)-3-(4-Chlorophenyl)-1-(4-Methyl-2-Thioxo-2,3-Dihydrothiazol-5-yl)Prop-2-En-1-One] the GI50 (SNB-19; SNB-19) was 12 µM, the pIC50 (SNB-19; SNB-19) was 4.65 and the activity at 10 µM (SNB-19; SNB-19, 48 h, read-out: Growth Percentage) was 15.8%. For the same compound, the CC50 (SNB-19; SNB-19, read-out: LC50) was 50.1 µM, the IC (TGI) (SNB-19; SNB-19, read-out: TGI) was 24.6 µM and the GI50 (NCI-H23; NCI-H23) was 14.8 µM. The pIC50 (NCI-H23; NCI-H23) was 4.57, the activity at 10 µM (NCI-H23; NCI-H23, 48 h, read-out: Growth Percentage) was 36.4% and the CC50 (NCI-H23; NCI-H23, read-out: LC50) was 58.9 µM. The IC (TGI) (NCI-H23; NCI-H23, read-out: TGI) was 29.5 µM, the GI50 (NCI/ADR-RES) was 3.72 µM and the pIC50 (NCI/ADR-RES) was 5.15. The activity at 10 µM (NCI/ADR-RES; [2]) was -8.39%, the CC50 (NCI/ADR-RES; read-out: LC50) was 77.6 µM and the IC (TGI) (NCI/ADR-RES; read-out: TGI) was 17.4 µM. It also gave a GI50 (SK-MEL-5; SK-MEL-5) of 11.2 µM, a pIC50 (SK-MEL-5; SK-MEL-5) of 4.69 and an activity at 10 µM (SK-MEL-5; SK-MEL-5, 48 h, read-out: Growth Percentage) of 28%. The CC50 (SK-MEL-5; SK-MEL-5, read-out: LC50) was 49 µM, the IC (TGI) (SK-MEL-5; SK-MEL-5, read-out: TGI) was 23.4 µM and the GI50 (MDA-MB-231/ATCC; MDA-MB-231) was 16.2 µM. It also gave a pIC50 (MDA-MB-231/ATCC; MDA-MB-231) of 4.51, an activity at 10 µM (MDA-MB-231/ATCC; MDA-MB-231, 48 h, read-out: Growth Percentage) of 39.3% and a CC50 (MDA-MB-231/ATCC; MDA-MB-231, read-out: LC50) of 61.7 µM. It also gave an IC (TGI) (MDA-MB-231/ATCC; MDA-MB-231, read-out: TGI) of 31.6 µM, a GI50 (NCI-H322M) of 10.2 µM and a pIC50 (NCI-H322M) of 4.70. It also gave a CC50 (NCI-H322M; read-out: LC50) of 51.3 µM, an IC (TGI) (NCI-H322M; read-out: TGI) of 22.9 µM and a GI50 (MOLT-4; MOLT-4) of 14.5 µM. It also gave a pIC50 (MOLT-4; MOLT-4) of 4.61, an activity at 10 µM (MOLT-4; MOLT-4, 48 h, read-out: Growth Percentage) of 10.2% and a CC50 (MOLT-4; MOLT-4, read-out: LC50) greater than 100 µM. For the same compound, the IC (TGI) (MOLT-4; MOLT-4, read-out: TGI) was 79.4 µM, the GI50 (K-562; K562) was 3.89 µM and the pIC50 (K-562; K562) was 5.33. It also gave an activity at 10 µM (K-562; K562, 48 h, read-out: Growth Percentage) of 7.94%, a CC50 (K-562; K562, read-out: LC50) greater than 100 µM and an IC (TGI) (K-562; K562, read-out: TGI) greater than 100 µM. For the same compound, the GI50 (NCI-H226; NCI-H226) was 13.8 µM, the pIC50 (NCI-H226; NCI-H226) was 4.44 and the activity at 10 µM (NCI-H226; NCI-H226, 48 h, read-out: Growth Percentage) was 20.5%. The CC50 (NCI-H226; NCI-H226, read-out: LC50) was greater than 100 µM, the IC (TGI) (NCI-H226; NCI-H226, read-out: TGI) was 38 µM and the GI50 (SR) was 3.55 µM. For the same compound, the pIC50 (SR) was 5.27, the CC50 (SR; read-out: LC50) was greater than 100 µM and the IC (TGI) (SR; read-out: TGI) was 56.2 µM. It also gave a GI50 (EKVX) of 12.9 µM, a pIC50 (EKVX) of 4.62 and an activity at 10 µM (EKVX; [2]) of 41%. It also gave a CC50 (EKVX; read-out: LC50) of 52.5 µM, an IC (TGI) (EKVX; read-out: TGI) of 26.3 µM and a GI50 (DU-145; DU-145) of 4.9 µM. For the same compound, the pIC50 (DU-145; DU-145) was 5.05, the activity at 10 µM (DU-145; DU-145, 48 h, read-out: Growth Percentage) was 7.29% and the CC50 (DU-145; DU-145, read-out: LC50) was 42.7 µM. The IC (TGI) (DU-145; DU-145, read-out: TGI) was 17.4 µM, the GI50 (PC-3; PC-3) was 5.37 µM and the pIC50 (PC-3; PC-3) was 5.01. It also gave a CC50 (PC-3; PC-3, read-out: LC50) of 81.3 µM, an IC (TGI) (PC-3; PC-3, read-out: TGI) of 23.4 µM and a GI50 (BT-549; BT-549) of 5.75 µM. The pIC50 (BT-549; BT-549) was 4.68, the activity at 10 µM (BT-549; BT-549, 48 h, read-out: Growth Percentage) was -14.4% and the IC (TGI) (BT-549; BT-549, read-out: TGI) was 20.4 µM. It also gave a GI50 (RPMI-8226; RPMI-8226) of 2.4 µM, an activity at 10 µM (RPMI-8226; RPMI-8226, 48 h, read-out: Growth Percentage) of 13.8% and a pIC50 (RPMI-8226; RPMI-8226, RPMI-8226, five doses) of 5.62. It also gave a pIC50 (RPMI-8226; RPMI-8226, five-dose, Leukemia RPMI-8226) of 5.33, a CC50 (RPMI-8226; RPMI-8226, read-out: LC50) greater than 100 µM and an IC (TGI) (RPMI-8226; RPMI-8226, read-out: TGI) of 8.32 µM. It also gave a GI50 (A498; A498) of 15.8 µM, a pIC50 (A498; A498) of 4.51 and an activity at 10 µM (A498; A498, 48 h, read-out: Growth Percentage, A498, dose of 10 μM) of 106%. It also gave a CC50 (A498; A498, read-out: LC50) of 56.2 µM, an IC (TGI) (A498; A498, read-out: TGI) of 29.5 µM and a GI50 (ACHN) of 13.8 µM. For the same compound, the pIC50 (ACHN) was 4.62, the activity at 10 µM (ACHN; [2]) was 34.6% and the CC50 (ACHN; read-out: LC50) was 51.3 µM. For the same compound, the IC (TGI) (ACHN; read-out: TGI) was 26.9 µM, the GI50 (SF-539; SF-539) was 6.92 µM and the pIC50 (SF-539; SF-539) was 4.79. It also gave an activity at 10 µM (SF-539; SF-539, 48 h, read-out: Growth Percentage) of -30.4%, an IC (TGI) (SF-539; SF-539, read-out: TGI) of 20.4 µM and an activity at 10 µM ([1]; mean over the tested cell lines, read-out: Mean growth percentage) of 23.7%. For the same compound, the activity at 10 µM ([1]; range over the cell lines, read-out: growth percentages against most of the tested cells (lowest to highest)) was -48.1 to 106%, the “Log10GI50 _MID” value [1, 3] was -5.13 Molar and the “Log10LC50 _MID” value [1, 3] was -4.23 Molar. The “Log10TGI _MID” value [1, 3] was -4.63 Molar, the GI50 (SF-268; SF-268) was 12 µM and the pIC50 (SF-268; SF-268) was 4.61. For the same compound, the activity at 10 µM (SF-268; SF-268, 48 h, read-out: Growth Percentage) was 67.9%, the CC50 (SF-268; SF-268, read-out: LC50) was 64.6 µM and the IC (TGI) (SF-268; SF-268, read-out: TGI) was 28.2 µM. For the same compound, the GI50 (NCI-H522; NCI-H522) was 11.8 µM, the pIC50 (NCI-H522; NCI-H522) was 4.65 and the activity at 10 µM (NCI-H522; NCI-H522, 48 h, read-out: Growth Percentage) was 13.5%. It also gave a CC50 (NCI-H522; NCI-H522, read-out: LC50) of 52.5 µM, an IC (TGI) (NCI-H522; NCI-H522, read-out: TGI) of 25.1 µM and a GI50 (SN12C) of 4.9 µM. It also gave a pIC50 (SN12C) of 4.97, an activity at 10 µM (SN12C; [2]) of 4.62% and a CC50 (SN12C; read-out: LC50) of 43.6 µM. It also gave an IC (TGI) (SN12C; read-out: TGI) of 18.2 µM, a GI50 (RXF 393; RXF 393) of 5.89 µM and a pIC50 (RXF 393; RXF 393) of 4.62. For the same compound, the activity at 10 µM (RXF 393; RXF 393, 48 h, read-out: Growth Percentage) was 9.78%, the CC50 (RXF 393; RXF 393, read-out: LC50) was 49 µM and the IC (TGI) (RXF 393; RXF 393, read-out: TGI) was 19.9 µM. For the same compound, the GI50 (MALME-3M) was 14.5 µM, the pIC50 (MALME-3M) was 4.51 and the CC50 (MALME-3M; read-out: LC50) was 75.9 µM. For the same compound, the IC (TGI) (MALME-3M; read-out: TGI) was 33.1 µM, the GI50 (CCRF-CEM) was 2.88 µM and the activity at 10 µM (CCRF-CEM; [2]) was 3.18%. It also gave a pIC50 (CCRF-CEM; five doses) of 5.54, a pIC50 (CCRF-CEM; five-dose, Leukemia CCRF-CEM) of 5.40 and an IC (TGI) (CCRF-CEM; read-out: TGI) of 11.2 µM. It also gave a GI50 (M14; M14) of 14.1 µM, a pIC50 (M14; M14) of 4.61 and an activity at 10 µM (M14; M14, 48 h, read-out: Growth Percentage) of 34.4%. For the same compound, the IC (TGI) (M14; M14, read-out: TGI) was 32.4 µM, the GI50 (COLO 205; COLO 205) was 19.1 µM and the pIC50 (COLO 205; COLO 205) was 4.47. The activity at 10 µM (COLO 205; COLO 205, 48 h, read-out: Growth Percentage) was 78.2%, the CC50 (COLO 205; COLO 205, read-out: LC50) was 74.1 µM and the IC (TGI) (COLO 205; COLO 205, read-out: TGI) was 38 µM. It also gave a GI50 (HS 578T) of 21.4 µM, a pIC50 (HS 578T) of less than 4.00 and an activity at 10 µM (HS 578T; [2]) of 48%. It also gave a CC50 (HS 578T; read-out: LC50) greater than 100 µM, an IC (TGI) (HS 578T; read-out: TGI) of 77.6 µM and a GI50 (MCF7; MCF7) of 3.16 µM. It also gave a pIC50 (MCF7; MCF7) of 5.33, an activity at 10 µM (MCF7; MCF7, 48 h, read-out: Growth Percentage) of 4.86% and a CC50 (MCF7; MCF7, read-out: LC50) of 43.6 µM. The IC (TGI) (MCF7; MCF7, read-out: TGI) was 13.2 µM.
